Test results as given in patent publication US20240216410A1, “METHODS AND COMPOSITIONS FOR TREATING CANCER THERAPY-INDUCED NEUTROPENIC FEVER AND/OR GVHD” (BOARD OF REGENTS, THE UNIVERSITY OF TEXAS SYSTEM, priority 2021, published 2024).
Like-named read-outs stand apart in the source and are kept apart here.

Columns and labels:
Akkermansia [1] = assay: Dietary restriction in mice with narrow-spectrum antibiotics in the drinking water; type: in vivo; conditions: antibiotic in drinking water from 5 days prior to dietary restriction
Text: Diet is a major determinant of intestinal microbiome composition, and the indirect impact of RT on microbiome composition due to a reduction in intake of food in mice was investigated. Mice were individually housed in metabolic cages following RT to quantify effects of RT on food and water intake. Within 2 days following RT, mice had reduced their oral intake to approximately 2 grams a day, or a 50% reduction (FIG. 3A). To evaluate whether dietary restriction (DR) could impact intestinal microbiome composition and the colonic mucus layer, normal, un-irradiated mice were limited 2 grams of chow per mouse per day for 7 days.
Because commercially-available mice lacking Akkermansia are not easy to find (12), narrow-spectrum antibiotics were used to evaluate the specific contribution of Akkermansia to mucus thinning during DR.

[2] = tested on: A. muciniphila strain (MDA-JAX AM001); assay: Growth of A. muciniphila in BYEM10+ mucin medium (OD600 nm up to 48 hrs); type: cell-based, Akkermansia muciniphila
Method: SCFAs were added in 10 and 20 mM final concentration to bacterial culture. Growth of the bacteria at 37° C. in BYEM10+ mucin medium was read at OD600 nm continuously up to 48 hrs. Control Akkermansia culture was grown in absence of compounds.
Using a high-throughput screening strategy analyzing ˜1800 compounds, various other natural compounds in addition to SCFAs were identified for their potential to delay and/or suppress growth of MDA-JAX AM001. […] Growth of the bacteria at 37° C. in BYEM10+ mucin medium was read at OD600 nm continuously up to 48 hrs. Control Akkermansia culture was grown in absence of compounds.
Several active ruminal metabolites were also tested for their ability to delay and/or suppress growth of MDA-JAX AM001. Compounds were selected based on initial testing of Akkermansia growth in medium containing 1× to 3× concentrated ruminal fluid, followed by analysis of metabolite content by MALDI-TOF mass-spectrometry. Ruminal metabolite compounds tested included Malic acid (2 mM and 5.6 mM), 3-Indole acetic acid (5.6 mM and 8.6 mM), Hydrocinnamic acid (2.66 mM and 3.99 mM), Methylmalonic acid (8.4 mM and 10.6 mM), Glucoranic acid (16.8 mM), Galacturonic acid (14 mM), and Bis-hydroxy methyl propionic acid (22 mM). These ruminal metabolite compounds have also been found in human stool, as analyzed by MALDI-TOF mass spectrometry. […] Growth of the bacteria at 37° C. in BYEM10+ mucin medium was read at OD600 nm continuously up to 48 hrs. Control Akkermansia culture was grown in absence of compounds.

[3] = tested on: A. muciniphila (MDA-JAX AM001); conditions: for mucin glycan utilization by A. muciniphila: physiological concentrations, varying pH, 48 hours of culture
Method: The impact of DR-induced metabolic changes in the colonic lumen on A. muciniphila behavior was also studied using an in vitro mucin glycan consumption assay. A novel A. muciniphila (MDA-JAX AM001) strain was isolated from the feces of C57BL6 mice and introduced to liquid media supplemented with PGM, and the effects of varying pH either alone or combined with the presence of physiological concentrations of acetate, propionate, and butyrate were evaluated.

Akkermansia [4] = tested on: Akkermansia
Akkermansia [5] = assay: Total body radiotherapy (9 Gy RT) mice treated with azithromycin or propionate; type: in vivo; conditions: for colonic mucus layer thickness: 9 Gy total body RT; for colonic tissue levels of IL-1b, CCL2, CCL7, IL-22, CXCL1 and CXCL10 / ocular surface temperatures (hypothermia) / outgrowth of Akkermansia: day 6 after RT; for outgrowth of Akkermansia: 16S rRNA gene sequencing
Method: C57BL/6 mice were exposed to a single myeloablative dose of total body radiotherapy (9 Gy RT), and stool samples were evaluated 6 days later by 16S rRNA gene sequencing. […] Colonic tissue samples were cut cross-sectionally and mucus layer thickness was averaged across 8 equally-spaced circumferential sites (FIG. 7) to evaluate whether the dense colonic mucus layer, which normally separates bacteria-rich luminal contents from the colonic epithelium, was affected by irradiation in mice.
Additionally, ocular surface temperatures were non-invasively measured in mice using a published method (16) because in contrast to humans, mice are develop hypothermia in response to exposure to inflammatory ligands such as LPS (17) and in models of sepsis (18).
The degree of inflammation in colonic tissue was directed measured by quantifying levels of a panel of cytokines (FIG. 5C).

[6] = Melphalan therapy in mice: intestinal microbiome and colonic mucus layer; type: in vivo; conditions: 6 days following melphalan 20 mg/kg, C57BL/6 mice
Text: Myeloablative RT, previously a foundational pillar that made HCT possible, has been progressively replaced by chemotherapy, particularly alkylating agents (11). […] An expansion of Bacteroides was also seen, though this was not statistically significant after correction for multiple comparisons, and was accompanied by a loss of Muribaculaceae, similar to that following RT.

[7] = human, in vivo
Method: In this study, data from 295 patients with acute myeloid leukemia (AML) or myelodysplastic syndrome (MDS) who underwent allo-HSCT with tacrolimus and methotrexate as GVHD prophylaxis following conditioning therapy with fludarabine and 5 busulfan from 2011 to 2016 were retrospectively examined. The incidence of acute intestinal GVHD until day 100 after transplant was evaluated and compared were patients who received neither cefepime nor meropenem, those who received cefepime alone, those who received meropenem alone, and those who received both cefepime and meropenem during the period from days −10 to 30 relative to allo-HSCT infusion.
Retrospective study design. 295 patients with acute myeloid leukemia (AML) or myelodysplastic syndrome (MDS) underwent allogeneic hematopoietic stem cell transplantation (allo-HSCT) with fludarabine plus busulfan as conditioning therapy and tacrolimus and methotrexate as GVHD prophylaxis from 2011 and 2016 and were analyzed retrospectively. Patients were classified by antibiotic exposures, including those who received neither cefepime nor meropenem, those who received cefepime alone, those who received meropenem alone and those who received both cefepime and meropenem from day −10 to day 30 after allo-HSCT. Acute GVHD was diagnosed by clinical and/or pathological findings, and graded according to standard criteria (56).

[8] = 10 mM and 20 mM, vs mucin-only control, 37° C.
[9] = Malic acid 2 and 5.6 mM, 3-Indole acetic acid 5.6 and 8.6 mM, Hydrocinnamic acid 2.66 and 3.99 mM, Methylmalonic acid 8.4 and 10.6 mM, Glucoranic acid 16.8 mM, Galacturonic acid 14 mM, Bis-hydroxy methyl propionic acid 22 mM
[10] = acidified drinking water (pH3), one week dietary restriction
[11] = Brucine 2.5 and 5 mM, Methyl-β-D-galactopyranoside 14 mM, Resacetophenone 3.3 and 5 mM, Serotonin 4.7 and 7.1 mM
[12] = drinking water at neutral pH, dietary restriction

## CN[C@H](CC(C)C)C(=O)N[C@H]1C(=O)N[C@@H](CC(N)=O)C(=O)N[C@H]2C(=O)N[C@H]3C(=O)N[C@H](C(=O)N[C@H](C(=O)O)c4cc(O)cc(O)c4-c4cc3ccc4O)[C@H](O)c3ccc(c(Cl)c3)Oc3cc2cc(c3O[C@@H]2O[C@H](CO)[C@@H](O)[C@H](O)[C@H]2O[C@H]2C[C@](C)(N)[C@H](O)[C@H](C)O2)Oc2ccc(cc2Cl)[C@H]1O [vancomycin]
Akkermansia [1]
  bacterial populations depleted: depleted both gram-positive bacteria and some Bacteroidetes
  colonic mucus layer thinning during dietary restriction: Neither streptomycin nor vancomycin had a significant effect on mucus barrier loss

## CCCCC(=O)O [valerate]
[2]; [8]
  growth of MDA-JAX AM001: suppress and/or delay MDA-JAX AM001 growth

## O=C(O)CC(O)C(=O)O (stereo not drawn) [Malic acid]
[2]; [9]
  growth of MDA-JAX AM001: delay and inhibit MDA-JAX AM001 growth

## CC(=O)[O-].[Na+] [acetate, sodium acetate]
[3]
  mucin glycan utilization by A. muciniphila: negligible effects on A. muciniphila behavior
Akkermansia [4]; [10]
  expansion of Akkermansia: no such preventative effect
  fecal / colonic luminal pH: lowering the pH in the colonic lumen
  thinning of the colonic mucus layer: no such preventative effect

## CC(C(=O)O)C(=O)O [Methylmalonic acid]
[2]; [9]
  growth of MDA-JAX AM001: delay and inhibit MDA-JAX AM001 growth

## CO[C@@H]1O[C@H](CO)[C@H](O)[C@H](O)[C@H]1O [Methyl-β-D-galactopyranoside]
[2]; [11]
  growth of MDA-JAX AM001: delay and suppress the growth of MDA-JAX AM001

## CCCC(=O)[O-].[Na+] [butyrate, sodium butyrate]
[3]
  mucin glycan utilization by A. muciniphila: negligible effects on A. muciniphila behavior

## O=C(O)CCc1ccccc1 [Hydrocinnamic acid]
[2]; [9]
  growth of MDA-JAX AM001: delay and inhibit MDA-JAX AM001 growth

## CC[C@H]1OC(=O)[C@H](C)[C@@H](O[C@H]2C[C@@](C)(OC)[C@@H](O)[C@H](C)O2)[C@H](C)[C@@H](O[C@@H]2O[C@H](C)C[C@H](N(C)C)[C@H]2O)[C@](C)(O)C[C@@H](C)CN(C)[C@H](C)[C@@H](O)[C@]1(C)O [azithromycin]
Akkermansia [5]
  colonic mucus layer thickness: effective in preserving colonic mucus layer thickness
  colonic tissue levels of IL-1b, CCL2, CCL7, IL-22, CXCL1 and CXCL10: reduced
  ocular surface temperatures (hypothermia): less depressed at day 6
  outgrowth of Akkermansia: very effective at preventing outgrowth of Akkermansia
Akkermansia [1]
  bacterial populations depleted: depleted Akkermansia as well as some gram positive populations
  colonic mucus layer thinning during dietary restriction: prevented thinning of the colonic mucus layer

## O=C[C@H](O)[C@@H](O)[C@@H](O)[C@H](O)C(=O)O [Galacturonic acid]
[2]; [9]
  growth of MDA-JAX AM001: delay and inhibit MDA-JAX AM001 growth

## [H]/N=C(/N)N[C@H]1[C@H](O)[C@@H](O)[C@H](O[C@@H]2O[C@@H](C)[C@](O)(C=O)[C@H]2O[C@@H]2O[C@@H](CO)[C@H](O)[C@@H](O)[C@@H]2NC)[C@@H](N/C(N)=N\[H])[C@@H]1O [streptomycin]
Akkermansia [1]
  bacterial populations depleted: depleted certain gram-positive bacteria
  colonic mucus layer thinning during dietary restriction: Neither streptomycin nor vancomycin had a significant effect on mucus barrier loss

## CCC(=O)[O-].[Na+] [propionate, sodium propionate]
Akkermansia [5]
  colonic mucus layer thickness: effective in preserving colonic mucus layer thickness
  colonic tissue levels of IL-1b, CCL2, CCL7, IL-22, CXCL1 and CXCL10: prevented elevation of all of these cytokines, with the exception of CXCL1
  ocular surface temperatures (hypothermia): less depressed at day 6
  outgrowth of Akkermansia: not effective
[3]; higher levels, OD 600
  growth of A. muciniphila: delays in growth
[3]
  mucin glycan utilization by A. muciniphila: inhibitory effects on mucin glycan utilization
Akkermansia [4]; [10]
  expansion of Akkermansia: mitigated expansion of Akkermansia
  fecal / colonic luminal pH: reduced fecal pH
  thinning of the colonic mucus layer: prevented thinning of the mucus layer
Akkermansia [4]; [12]
  expansion of Akkermansia: trended towards preventing Akkermansia expansion
  thinning of the colonic mucus layer: sufficient to prevent mucus thinning

## N[C@@H](Cc1ccc(N(CCCl)CCCl)cc1)C(=O)O [melphalan]
[6]
  changes in the intestinal microbiome: increase in the abundance of Akkermansia
  colonic mucus layer thickness: significantly thinner

## NCCc1c[nH]c2ccc(O)cc12 [Serotonin]
[2]; [11]
  growth of MDA-JAX AM001: delay and suppress the growth of MDA-JAX AM001

## CO/N=C(\C(=O)N[C@@H]1C(=O)N2C(C(=O)[O-])=C(C[N+]3(C)CCCC3)CS[C@H]12)c1csc(N)n1 [cefepime]
[7]
  Acute GVHD Grade 0, number of patients: 57
  Acute GVHD Grade 0, percentage of patients: (46%)
  Acute GVHD Grade I, number of patients: 26
  Acute GVHD Grade I, percentage of patients: (21%)
  Acute GVHD Grade II, number of patients: 34
  Acute GVHD Grade II, percentage of patients: (27%)
[7]; iv
  Acute GVHD Grade III-IV, number of patients: 7
  Acute GVHD Grade III-IV, percentage of patients: (6%)

## CC(CO)(CO)C(=O)O [Bis-hydroxy methyl propionic acid]
[2]; [9]
  growth of MDA-JAX AM001: delay and inhibit MDA-JAX AM001 growth

## COc1cc2c(cc1OC)[C@@]13CCN4CC5=CCO[C@H]6CC(=O)N2[C@H]1[C@H]6[C@H]5C[C@H]43 [Brucine]
[2]; [11]
  growth of MDA-JAX AM001: delay and suppress the growth of MDA-JAX AM001

## CC(C)CC(=O)O [isovalerate]
[2]; [8]
  growth of MDA-JAX AM001: suppress and/or delay MDA-JAX AM001 growth

## O=C(O)Cc1c[nH]c2ccccc12 [3-Indole acetic acid]
[2]; [9]
  growth of MDA-JAX AM001: delay and inhibit MDA-JAX AM001 growth

## CC(=O)c1ccc(O)cc1O [Resacetophenone]
[2]; [11]
  growth of MDA-JAX AM001: delay and suppress the growth of MDA-JAX AM001
